Laboratory results from US6897288B1, “Mage-A12 antigenic peptides and uses thereof” (Ludwig Institute for Cancer Research, priority 1999, dated 2005).
pEC50: −log10 of the molar value.

System: autologous cell line LB-831-EBV pulsed with MAGE-A12 peptides, lysis by CTL 501D/19 (HLA-Cw*07 restricted)
Assay: Chromium release cytotoxicity assay with peptide-pulsed cells
Assay type: cell-based, human
Conditions: effector to target ratio of 10, chromium release after 4 hours; for sensitization of peptide-pulsed LB-831-EBV cells to lysis by CTL 501D/19 (recognition by CTL): chromium-labeled cells pulsed 30 min with peptide
Description: The lytic activity of CTLs was tested in a chromium release assay as described previously (Boon et al., J. Exp. Med. 152:1184-1193, 1980). Briefly, 1,000 chromium-labeled cells in 100 μl were incubated in 96-well microplates with an equal volume of CTL at different effector to target ratios. Chromium release was measured after 4 h of incubation. For the peptide assay, labeled LB831-EBV cells were incubated for 30 min at 37° C. with various concentrations of peptides. CTL were then added and chromium release was measured as described above.
Cells transfected with fragments of 540 bp or more were capable of stimulating CTL 501D/19, whereas those transfected with shorter fragments were not. […] In the amino-acid sequence corresponding to nucleotides 525-540, two overlapping nonapeptides, EVVRIGHLY (codons 168-176 of MAGE-A12; SEQ ID NO:3) and VRIGHLYIL (codons 170-178 of MAGE-A12; SEQ ID NO:4) were found which conformed to the HLA-Cw7 peptide binding motif, i.e. tyrosine or leucine at the C terminus (Rammensee et al., Immunogenetics. 41:178, 1995). Decapeptide […] (SEQ ID NO:5), nonapeptide VRIGHLYIL (SEQ ID NO:4) and octapeptide RIGHLYIL (SEQ ID NO:6) sensitized the autologous lymphoblastoid cell line LB-83]-EBV to lysis by CTL 501D/19 (FIG. 4). Autologous cell line LB-831-EBV was loaded with MAGE-A12 peptides VRIGHLYIL (SEQ ID NO:4), VVRIGHLYIL (SEQ ID NO:5), or RIGHLYIL (SEQ ID NO:6), and contacted with CTL 501D/19. Chromium-labeled cells were pulsed for 30 min with the indicated concentrations of peptides (VRIGHLYIL (SEQ ID NO:4) or […] (SEQ ID NO:6)). CTL 501D/19 was added at an effector to target ratio of 10. Chromium release was measured after 4 hours.

| Sequence | sensitization of peptide-pulsed LB-831-EBV cells to lysis by CTL 501D/19 (recognition by CTL) | pEC50 (LB-831-EBV cells pulsed 30 min, read-out: peptide concentration giving half-maximal lysis by CTL 501D/19) |
| --- | --- | --- |
| EVVRIGHLY (listed as Homo sapiens) [SEQ ID NO:3, nonapeptide, codons 168-176 of MAGE-A12] | not recognized |  |
| VVRIGHLYIL [SEQ ID NO:5] | sensitized |  |
| RIGHLYIL [SEQ ID NO:6] | sensitized |  |
| VRIGHLYIL [SEQ ID NO:4] | sensitized | 10.00 |
